How the values were obtained:
[1] = test system: individual who presented with plaque psoriasis; assay: Case report: plaque psoriasis; format: in vivo, humans; settings: glycerol formulation, topical
Description: An individual who presented with plaque psoriasis topically administered a glycerol formulation containing the cannabigerol anion.

individuals with anxiety = assay: Case reports: anxiety; format: in vivo, humans
Protocol: An individual was administered a beverage containing the cannabidiol anion prior to driving to an airport to catch a flight that was scheduled to leave within thirty minutes of the arrival at the airport.
An individual who suffers from chronic anxiety was administered a glycerol tincture containing the cannabigerol anion.

[2] = test system: individual who presented with Inflammatory Bowel Disease; assay: Case report: Inflammatory Bowel Disease; format: in vivo, humans; settings: glycerol tincture
Protocol: An individual who presented with Inflammatory Bowel Disease was administered a glycerol tincture containing the cannabigerol anion.

[3] = test system: individual who presented with peripheral neuropathy; assay: Case report: peripheral neuropathy; format: in vivo, humans; settings: glycerol formulation, topical
Description: An individual who presented with peripheral neuropathy topically administered a glycerol formulation containing the cannabigerol anion.

[4] = test system: individual who presented with Crohn's disease; assay: Case report: Crohn's disease; format: in vivo, humans; settings: glycerol tincture
Protocol: An individual who presented with Crohn's disease was administered a glycerol tincture containing the cannabigerol anion.

[5] = test system: individual who presented with chronic insomnia; assay: Case report: insomnia; format: in vivo, humans; settings: glycerol tincture before sleep
Protocol: An individual who presented with chronic insomnia was administered a glycerol tincture containing the cannabigerol anion before sleep.

Mice fed a high-fat diet = assay: Diet-induced obesity model: body weight, serum ALT/AST, liver steatosis; format: in vivo; settings: 1-64 mg/kg/day oral gavage for two months; for liver steatosis: hematoxylin and eosin staining
Protocol: Mice are fed either a control standard diet or a high-fat diet beginning when they are two months old. The mice are concomitantly administered either vehicle or a cannabinoid selected from cannabigerol and cannabigerovarin at an amount of either 1, 2, 4, 8, 16, 32, or 64 milligrams cannabinoid per kilogram mouse body weight per day by oral gavage.
Mouse body weights are measured daily. The mice are sacrificed when they are four months old following two months of the diet, cannabinoid (or vehicle), and weighing. Serum alanine aminotransferase (“ALT”) and serum aspartate aminotransferase (“AST”) are measured using a Reflotran Plus blood chemistry system (Roche, Switzerland). Mouse livers are fixed and then stained with hematoxylin and eosin to visualize liver steatosis.

TNF-alpha = assay: Serum TNF-alpha by enzyme-linked immunosorbent assay in zymosan A paw model; format: in vivo, mice; settings: relative to vehicle control groups; 24 hours after zymosan A; 1-64 mg/kg/day oral gavage
Protocol: (§1) Female Sabra mice are administered either vehicle or a cannabinoid. The cannabinoid is selected from 2-geranyl-5-pentylbenzene-1,3-diol (“cannabigerol”) and 2-geranyl-5-propylbenzene-1,3-diol (“cannabigerovarin”). The cannabinoid is administered at an amount of either 1, 2, 4, 8, 16, 32, or 64 milligrams cannabinoid per kilogram mouse body weight per day by oral gavage beginning when they are two months old.
(§2) Following one month of administration of either vehicle or a cannabinoid, 30 microliters of a 2 percent weight-by-volume suspension of zymosan A in saline is injected into each right hind paw of the mice. Inflammation is measured with calipers to determine right hind paw swelling at 1, 2, 6, 12, and 24 hours following the zymosan A injection relative to left hind paw. Pain is measured with a Von Frey hair aesthesiometer to determine right hind paw sensitivity to force relative to left hind paw. Serum TNF-alpha concentration is measured at 24 hours by enzyme-linked immunosorbent assay.

Female Sabra mice = assay: Zymosan A right hind paw arthritis model: paw swelling (calipers) and pain (Von Frey); format: in vivo; settings: relative to vehicle control groups, 1-64 mg/kg/day oral gavage for one month; for right hind paw inflammation: swelling at 1, 2, 6, 12, 24 hours after zymosan A; for right hind paw pain: Von Frey hair aesthesiometer
Protocol: as §1, §2

[6] = test system: neutrophil-mediated inflammation; assay: Zymosan A knee arthritis model: neutrophil elastase imaging and transcript RT-PCR; format: in vivo; settings: male C57BL/6J mice; for imaged right knee neutrophil elastase: relative to vehicle control group, imaged 4 hours post-injection, 1-64 mg/kg/day oral gavage; for adamts4 transcripts / myeloperoxidase transcripts / neutrophil elastase transcripts: relative to vehicle control groups, real-time PCR
Protocol: Male C57BL/6J mice are administered either vehicle or a cannabinoid. The cannabinoid is selected from cannabigerol and cannabigerovarin. The cannabinoid is administered at an amount of either 1, 2, 4, 8, 16, 32, or 64 milligrams cannabinoid per kilogram mouse body weight per day by oral gavage beginning when they are two months old.
Following one month of administration, mice are anesthetized with isoflurane and then 180 micrograms of zymosan A in saline is injected into the right knee of each mouse. Equivalent volumes of saline are injected into the left knee of each mouse. Mice are then injected with Neutrophil Elastase 680 FAST imaging probe (Perkin Elmer, Massachusetts, United States) and imaged 4 hours post-injection using an IVIS Spectrum In Vivo Imaging System (Perkin Elmer) to measure neutrophil-mediated inflammation. Mouse RNA is extracted and purified, and then relative adamts4 transcript, relative neutrophil elastase transcript, and relative myeloperoxidase transcript concentrations are measured following reverse transcription using real-time polymerase chain reactions.

[7] = test system: individual who presented with chronic pain; assay: Case report: chronic pain; format: in vivo, humans; settings: glycerol tincture
Protocol: An individual who presented with chronic pain was administered a glycerol tincture containing the cannabidiol anion.

[8] = test system: dog that suffers from chronic seizures; assay: Case report: epilepsy in a dog; format: in vivo; settings: glycerol tincture immediately after the onset of a seizure
Protocol: A dog that suffers from chronic seizures was administered a glycerol tincture containing the cannabidiol anion immediately after the onset of a seizure.

[9] = test system: individual who presented with social anxiety associated with presenting at business meetings; assay: Case report: social anxiety; format: in vivo, humans; settings: beverage containing the anion, before presenting
Protocol: An individual who presented with social anxiety associated with presenting at business meetings was administered a beverage containing the cannabidiol anion before presenting.

[10] = test system: individual who presented with back pain associated with driving for prolonged periods of time; assay: Case report: acute back pain; format: in vivo, humans; settings: glycerol tincture, ingested
Protocol: An individual who presented with back pain associated with driving for prolonged periods of time was administered a glycerol tincture containing the cannabidiol anion.

[11] = test system: individual who presented with cancer pain caused by throat cancer; assay: Case report: cancer pain; format: in vivo, humans; settings: water containing the anion, ingested
Protocol: An individual who presented with cancer pain caused by throat cancer was administered water containing the cannabidiol anion (2-[6-isopropenyl-3-methylcyclohex-2-enyl]-3-hydroxy-5-pentylphenolate).

[12] = test system: individual who presented with cramping and restless legs syndrome; assay: Case report: cramping and restless legs syndrome; format: in vivo, humans; settings: glycerol tincture before sleep
Protocol: An individual who presented with cramping and restless legs syndrome was administered a glycerol tincture containing the cannabidiol anion before sleep.

[13] = test system: individual with hip pain and lower back pain associated with spinal fusion surgery; assay: Case report: post laminectomy syndrome; format: in vivo, humans; settings: glycerol tincture, ingested
Protocol: An individual with hip pain and lower back pain associated with spinal fusion surgery was administered a glycerol tincture containing the cannabidiol anion.

[14] = test system: individual who presented with knee pain associated with inflammation caused by trauma from a fall; assay: Case report: knee pain; format: in vivo, humans; settings: glycerol tincture, ingested
Protocol: An individual who presented with knee pain associated with inflammation caused by trauma from a fall was administered a glycerol tincture containing the cannabidiol anion.

[15] = test system: individual who presented with chronic back pain associated with standing; assay: Case report: chronic back pain; format: in vivo, humans; settings: glycerol tincture, ingested
Protocol: An individual who presented with chronic back pain associated with standing was administered a glycerol tincture containing the cannabidiol anion.

[16] = test system: individual who presented with hip pain associated with sitting; assay: Case report: chronic hip pain; format: in vivo, humans; settings: glycerol tincture, ingested
Protocol: An individual who presented with hip pain associated with sitting was administered a glycerol tincture containing the cannabidiol anion.

[17] = test system: individual with arthritis; assay: Case report: arthritis; format: in vivo, humans; settings: glycerol tincture
Protocol: An individual who was unable to fill […] hydroxychloroquine prescription to treat the arthritis during the COVID-19 pandemic was administered a glycerol tincture containing the cannabidiol anion.

Row | Structure (SMILES) | body weight (Mice fed a high-fat diet) | serum ALT (Mice fed a high-fat diet) | serum AST (Mice fed a high-fat diet) | liver steatosis (Mice fed a high-fat diet) | serum TNF-alpha concentration (TNF-alpha) | right hind paw inflammation (Female Sabra mice) | right hind paw pain (Female Sabra mice) | imaged right knee neutrophil elastase [6] | adamts4 transcripts [6] | myeloperoxidase transcripts [6] | neutrophil elastase transcripts [6] | also measured
1 | CCCCCc1cc(O)c(C/C=C(\C)CCC=C(C)C)c(O)c1 [cannabigerol anion, 2-geranyl-3-hydroxy-5-pentylphenolate] | – | – | – | – | – | – | – | – | – | – | – | plaque psoriasis symptoms (self-reported) [1]: significant improvement in their plaque psoriasis symptoms; chronic anxiety symptoms (self-reported) (individuals with anxiety; glycerol tincture): significant improvement in their anxiety symptoms; symptoms of Inflammatory Bowel Disease (self-reported) [2]: significant improvement in their symptoms of Inflammatory Bowel Disease; peripheral neuropathy symptoms (self-reported) [3]: significant improvement in their peripheral neuropathy symptoms; symptoms of Crohn's disease (self-reported) [4]: significant improvement in their symptoms of Crohn's disease; onset and quality of sleep (self-reported) [5]: significant improvement in the onset and quality of their sleep
2 | CCCCCc1cc(O)c(C/C=C(\C)CCC=C(C)C)c(O)c1 [cannabigerol, 2-geranyl-5-pentylbenzene-1,3-diol] | dose-dependent reduction | dose-dependent reduction | dose-dependent reduction | dose-dependent reduction | dose-dependent reduction | dose-dependent reduction | dose-dependent reduction | dose-dependent reduction | dose-dependent reduction | dose-dependent reduction | dose-dependent reduction | –
3 | CCCc1cc(O)c(C/C=C(\C)CCC=C(C)C)c(O)c1 [cannabigerovarin, 2-geranyl-5-propylbenzene-1,3-diol] | dose-dependent reduction | dose-dependent reduction | dose-dependent reduction | dose-dependent reduction | dose-dependent reduction | dose-dependent reduction | dose-dependent reduction | dose-dependent reduction | dose-dependent reduction | dose-dependent reduction | dose-dependent reduction | –
4 | C=C(C)C1CCC(C)=CC1c1c(O)cc(CCCCC)cc1O (stereo not shown) [cannabidiol anion, 2-[6-isopropenyl-3-methylcyclohex-2-enyl]-3-hydroxy-5-pentylphenolate] | – | – | – | – | – | – | – | – | – | – | – | chronic pain (self-reported) [7]: alleviation of pain that significantly improved their standard of living; seizures (reported by owners) [8]: both instantaneously and consistently arrested multiple seizures in the dog; anxiety during drive to airport (self-reported) (individuals with anxiety; beverage containing the anion, before driving): notable absence of anxiety; social anxiety and performance during business meeting (self-reported) [9]: reduced anxiety and improved performance during the business meeting; back pain (self-reported) [10]: notable alleviation of the back pain within minutes of ingestion; throat pain (self-reported) [11]: notable alleviation of throat pain within minutes of ingestion; sleep quality (self-reported) [12]: significant improvement in sleep quality; hip pain and lower back pain (self-reported) [13]: notable alleviation of hip pain and lower back pain within minutes of ingestion; mobility and knee pain (self-reported) [14]: improved mobility and alleviation of knee pain within minutes of ingestion; back pain (self-reported) [15]: notable alleviation of the back pain within minutes of ingestion; hip pain (self-reported) [16]: notable alleviation of the hip pain within minutes of ingestion; treatment of arthritis compared with hydroxychloroquine (self-reported) [17]: more effective at treating their arthritis than hydroxychloroquine
